pIC50: −log10 of the molar value.
Assays:
[1] = system: B16F10 cells; experiment: B16F10 cell proliferation assay (alamarBlue); format: cell-based; conditions: B16-F10; inhibition of cell proliferation, 96 hours, mouse melanoma cell line
Outline: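 Mouse B16F10 melanoma cells (300-500/well, DMEM, 10% FCS) treated with compound at 1E-5 to 1E-8 M for 96 h at 37° C. alamarBlue fluorescence (ex 530/em 590 nm) before and after treatment; the difference compared to buffer-treated cells gives IC50 for proliferation inhibition.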

[2] = biological target: T1, BRD4 Bromo Domain 1 [BRD4(1)] (Homo sapiens, UniProt O60885); experiment: BRD4(1)/acetylated peptide H4 binding assay (TR-FRET); conditions: inhibition of interaction between His6-tagged BRD4(1) (amino acids 67-152) and acetylated histone H4 peptide
T1 construct: N-terminally His6-tagged BRD4(1) (amino acids 67-152); made in house; host or cells: E. coli
Outline: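 His6-BRD4(1) (aa 67-152, E. coli), 10 nM final, with biotinylated tetra-acetylated H4 peptide in HEPES pH 7.5 buffer; 11 compound concentrations 0.1 nM-20 μM in duplicate, 10 min preincubation, then 1 h at 22 °C and ≥3 h at 4 °C. TR-FRET 665/620 ratio; IC50 by 4-parameter fit.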

Compound: COc1cc(C(=O)NC2CCC(N3CCN(CC4CC4)CC3)CC2)ccc1Nc1ccc2c(c1)N(C1CCOCC1)[C@H](C)C(=O)N2C (stereo partly drawn) [Example 37, N-{4-[4-(cyclopropylmethyl)piperazin-1-yl]cyclohexyl}-4-{[(3R)-1,3-dimethyl-2-oxo-4-(tetrahydro-2H-pyran-4-yl)-1,2,3,4-tetrahydroquinoxalin-6-yl]amino}-3-methoxybenzamide]
- pIC50 [1]: 5.82
- pIC50 [2]: 6.37

Compound: COc1ccc(CN2c3cc(Nc4ccc(C(=O)N5CC6(COC6)C5)cc4)ccc3N(C)C(=O)[C@H]2C)cc1 [Example 20, (3R)-4-(4-methoxybenzyl)-1,3-dimethyl-6-{[4-(2-oxa-6-azaspiro[3.3]hept-6-ylcarbonyl)phenyl]amino}-3,4-dihydroquinoxalin-2(1H)-one]
- pIC50 [1]: 6.59
- pIC50 [2]: 6.98

Compound: C[C@@H]1C(=O)N(C)c2ccc(Nc3ccc(C(=O)N4CCOCC4)cc3)cc2N1Cc1ccccc1 [Example 12, (3R)-4-benzyl-1,3-dimethyl-6-{[4-(morpholin-4-ylcarbonyl)phenyl]amino}-3,4-dihydroquinoxalin-2(1H)-one]
- pIC50 [1]: 6.75
- pIC50 [2]: 6.81

Compound: C[C@@H]1C(=O)N(C)c2ccc(Nc3ccc(S(=O)(=O)N(C)C)cc3)cc2N1Cc1ccccc1 [Example 14, 4-{[(3R)-4-benzyl-1,3-dimethyl-2-oxo-1,2,3,4-tetrahydroquinoxalin-6-yl]amino}-N,N-dimethylbenzenesulphonamide]
- pIC50 [1]: 6.75
- pIC50 [2]: 6.55

Compound: C[C@@H]1C(=O)N(C)c2ccc(Nc3ccc(C(=O)N4CC5(CCS5(=O)=O)C4)cc3)cc2N1C1CCOCC1 [Example 31, (3R)-6-({4-[(1,1-dioxido-1-thia-6-azaspiro[3.3]hept-6-yl)carbonyl]phenyl}amino)-1,3-dimethyl-4-(tetrahydro-2H-pyran-4-yl)-3,4-dihydroquinoxalin-2(1H)-one]
- pIC50 [1]: 5.49
- pIC50 [2]: 6.72

Compound: C[C@@H]1C(=O)N(C)c2ccc(Nc3ccc(C(=O)NC4CCN(C)CC4)cc3)cc2N1Cc1c(F)cccc1F (stereo in doubt) [Example 39, 4-{[4-(2,6-difluorobenzyl)-1,3-dimethyl-2-oxo-1,2,3,4-tetrahydroquinoxalin-6-yl]amino}-N-(1-methylpiperidin-4-yl)benzamide]
- pIC50 [1]: 5.48
- pIC50 [2]: 5.98

Compound: C[C@@H]1C(=O)N(C)c2ccc(Nc3ccc(C(=O)NCCN4CCN(C)CC4)cc3)cc2N1C1CCOCC1 [Example 30, 4-{[(3R)-1,3-dimethyl-2-oxo-4-(tetrahydro-2H-pyran-4-yl)-1,2,3,4-tetrahydroquinoxalin-6-yl]amino}-N-[2-(4-methylpiperazin-1-yl)ethyl]benzamide]
- pIC50 [1]: 5.57
- pIC50 [2]: 6.42

From patent US20150344444A1, “BET-PROTEIN-INHIBITING DIHYDROXYQUINOXALINONES” (BAYER PHARMA AKTIENGESELLSCHAFT, priority 2012, published 2015)
